We go through 34 sequences from the supplement of paper PMC11208160.
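Note: IS621 bridge recombinase in Escherichia coli cells against a fixed T5 target plasmid.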

This series in a line: recombinant UMI read abundance after kanamycin selection (control-corrected) (log10(CPM+1)); higher = more efficient recombination; extreme values may be limits of the assay; sequences stand for … in AGTGCAGAGAAAATCGGCCAGTTTTCTCTGCCTGCAGTCCGCATGCCGTGGGACCCCTTGGGTTCTAACCTGTTGCCTAGATTTATGCAGCGGACTGCCTTTCTCCCAAAGTGATAAACCGG…AGGTTGGTTTCACT; site = the 11-nt donor. In short, it runs like this:
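Sequencing read counts were converted to CPM, averaged over two replicates and scaled by control-derived factors. Results are given as log10(CPM+1). The reads covered the donor–target junction of recombinant UMIs from a pooled Escherichia coli screen of donor and donor-binding-loop pairs for the IS621 bridge recombinase.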
With “GTATTCGCATGGACCGGTTTTCCCGGTAATCCGTATTTGCG (site GTAGTCGCTCG)”, the “recombinant UMI read abundance (log10)” value was found to be 0.00852.
For “GTATTCGCATGGACCGGTTTTCCCGGTAATCCGTATTTGCG (site GTATTCGCTCG)” the value was 0.984; for “GTCAATCCATGGACCGGTTTTCCCGGTAATCCGTATTTGAA (site GACAATCCTTT)”, 0; for “GTCAATCCATGGACCGGTTTTCCCGGTAATCCGTATTTGAA (site GCCAATCCTTT)”, 0.306.
As to “GTCAATCCATGGACCGGTTTTCCCGGTAATCCGTATTTGAA (site GGCAATCCTTT)”, the “recombinant UMI read abundance (log10)” value was determined as 0.51.
With “GTCAATCCATGGACCGGTTTTCCCGGTAATCCGTATTTGAA (site GTCAATCCTTT)”, the “recombinant UMI read abundance (log10)” value was 1.07.
On to “GTCACCCCATGGACCGGTTTTCCCGGTAATCCGTATTTGGT (site GTCACCCCTAC)”, for which the “recombinant UMI read abundance (log10)” value is 0.425.
For the sequence “GTCACGACATGGACCGGTTTTCCCGGTAATCCGTATTTGAT (site GTCACGACTAT)”, the “recombinant UMI read abundance (log10)” value was 1.77.
Turning to “GTCACGACATGGACCGGTTTTCCCGGTAATCCGTATTTGGC (site GTCACGACTGC)”, the “recombinant UMI read abundance (log10)” value stood at 1.65.
As to “GTCATATCATGGACCGGTTTTCCCGGTAATCCGTATTTGTG (site GTCATATCTCA)”, the “recombinant UMI read abundance (log10)” value worked out at 2.31.
With “GTCCATGCATGGACCGGTTTTCCCGGTAATCCGTATTTGGT (site GTACATGCTAC)”, the “recombinant UMI read abundance (log10)” value was found to be 0.0101.
On to “GTCCATGCATGGACCGGTTTTCCCGGTAATCCGTATTTGGT (site GTCCATGCTAC)”, for which the “recombinant UMI read abundance (log10)” value amounted to 0.891.
For “GTCCATGCATGGACCGGTTTTCCCGGTAATCCGTATTTGGT (site GTGCATGCTAC)” the value was 0.0138; for “GTCCATGCATGGACCGGTTTTCCCGGTAATCCGTATTTGGT (site GTTCATGCTAC)”, 0.00783; for “GTCCCCACATGGACCGGTTTTCCCGGTAATCCGTATTTGCC (site GTCCCCACTGG)”, 2.05.
Take “GTCCCGACATGGACCGGTTTTCCCGGTAATCCGTATTTGCA (site GTCCCGACTTG)”: the “recombinant UMI read abundance (log10)” value is 1.54.
For the sequence “GTCGAATCATGGACCGGTTTTCCCGGTAATCCGTATTTGTT (site GTCGAATCTAA)”, the “recombinant UMI read abundance (log10)” value worked out at 2.52.
In the case of “GTCGAGGCATGGACCGGTTTTCCCGGTAATCCGTATTTGTG (site GTAGAGGCTCA)”, the “recombinant UMI read abundance (log10)” value worked out at 0.867.
As for “GTCGAGGCATGGACCGGTTTTCCCGGTAATCCGTATTTGTG (site GTCGAGGCTCA)”, the “recombinant UMI read abundance (log10)” value was 0.765.
For “GTCGAGGCATGGACCGGTTTTCCCGGTAATCCGTATTTGTG (site GTGGAGGCTCA)”, the “recombinant UMI read abundance (log10)” value is 0.0124.
Consider “GTCGAGGCATGGACCGGTTTTCCCGGTAATCCGTATTTGTG (site GTTGAGGCTCA)”, for which the “recombinant UMI read abundance (log10)” value worked out at 0.0142.
As for “GTCGCATCATGGACCGGTTTTCCCGGTAATCCGTATTTGGA (site GTCGCATCTTC)”, the “recombinant UMI read abundance (log10)” value turned out to be 2.05.
In the case of “GTCGCTCCATGGACCGGTTTTCCCGGTAATCCGTATTTGGG (site GTCGCTCCTCC)”, the “recombinant UMI read abundance (log10)” value turned out to be 0.0316.
With “GTCGGTCCATGGACCGGTTTTCCCGGTAATCCGTATTTGAA (site GTCGGTCCTTT)”, the “recombinant UMI read abundance (log10)” value was 0.0112.
“GTCTGAGCATGGACCGGTTTTCCCGGTAATCCGTATTTGGA (site GTCTGAGCTTC)”: the “recombinant UMI read abundance (log10)” value is 0.754.
In the case of “GTGAAGCCATGGACCGGTTTTCCCGGTAATCCGTATTTGGG (site GAGAAGCCTCC)”, the “recombinant UMI read abundance (log10)” value came to 0.0044.
As for “GTGAAGCCATGGACCGGTTTTCCCGGTAATCCGTATTTGGG (site GCGAAGCCTCC)”, the “recombinant UMI read abundance (log10)” value is 0.0113.
As for “GTGAAGCCATGGACCGGTTTTCCCGGTAATCCGTATTTGGG (site GGGAAGCCTCC)”, the “recombinant UMI read abundance (log10)” value came to 0.00817.
For the sequence “GTGAAGCCATGGACCGGTTTTCCCGGTAATCCGTATTTGGG (site GTGAAGCCTCC)”, the “recombinant UMI read abundance (log10)” value amounted to 0.00505.
For “GTGAAGGCATGGACCGGTTTTCCCGGTAATCCGTATTTGTG (site GTGAAGGCTCA)” the value was 2.12; for “GTGAAGGCATGGACCGGTTTTCCCGGTAATCCGTATTTGTG (site GTGCAGGCTCA)”, 0.498.
With “GTGAAGGCATGGACCGGTTTTCCCGGTAATCCGTATTTGTG (site GTGGAGGCTCA)”, the “recombinant UMI read abundance (log10)” value turned out to be 1.02.
Take “GTGAAGGCATGGACCGGTTTTCCCGGTAATCCGTATTTGTG (site GTGTAGGCTCA)”: the “recombinant UMI read abundance (log10)” value came out at 0.977.
With “GTGAATGCATGGACCGGTTTTCCCGGTAATCCGTATTTGGT (site GTGAATGCTAC)”, the “recombinant UMI read abundance (log10)” value amounted to 2.73.
